According to patent US20240315992A1, “AMINOXY ACID-BASED ANTIBACTERIAL COMPOUNDS AND METHODS THEREOF” (The University of Hong Kong, priority 2023, published 2024):

System: virulence proteins of Staphylococcus aureus ATCC 29213
Experiment: Secretome analysis of virulence proteins
Type: cell-based
Settings: 1.56 μM (0.5×MIC), 1.5 hours, supernatant
Procedure: The red dots represented proteins which were annotated as “Virulence” and “Secrete/extracellular” as subcellular location by UniprotKB. The curve is derived at FDR=0.05 and s0=0.1.
S. aureus ATCC 29213 cells were sub-cultured from an overnight culture to OD595 0.1 and then cultured for 5 hours at 37° C., 250 rpm. Cells were concentrated by centrifugation (3,000×g, 4° C., 15 minutes), washed with 1×PBS and resuspended in CAMH to give OD595 1.5. […] Cells were then concentrated by centrifugation (3,000×g, 15 minutes and 6,000×g, 5 minutes). The supernatant was filtered (0.2 μm) and then concentrated by Amicon Ultra 10 KDa filter. Protein concentration was quantified by Bradford assay.
To quench the reaction, dithiothreitol (12.5 mM; 25° C., 200 rpm) was added for 30 minutes. Endoprotinase LysC was subsequently added (Enzyme: protein ratio 1:200; 25° C., 700 rpm) for 2 hours. The samples were diluted 1:5 by 50 mM ammonium bicarbonate buffer and further digested by trypsin (Enzyme: protein ratio 1:20; 37° C.) for 16 hours. The reaction was quenched by the addition of formic acid until pH reached 2-3. Samples were then submitted to the HKU proteomics and metabolomics core facility for analysis.
The peptides were desalted using C18 StageTips. Eluted peptides were analyzed with nanoelute UPLC was coupled to Bruker TimsTOF Pro mass spectrometer. […]

CC(C)C[C@H](ONC(=O)[C@@H](COCc1ccccc1)ONC(=O)c1cc(C(F)(F)F)cc(C(F)(F)F)c1)C(=O)Nc1ccccc1 [Compound 8]
secretion of the virulence proteins: can reduce the secretion of the virulence proteins
